Measurements taken from the kinase profiling compilation of Christmann-Franck et al. (2016).
Values belong to the compound of their own block, whether it stands above or below them.

Tests used:
Assay in all cases: radiometric filter-binding kinase assay, Kinase HotSpot
Details in all cases: compound 0.5 µM; ATP 10 µM
VRK1 (human) = VRK1 (human) (UniProt Q99986)
WNK2 (human) = WNK2 (human) (UniProt Q9Y3S1)
AKT1 (human) = AKT1 (human) (UniProt P31749)
CDK2 CCNA2 (human) = CDK2 CCNA2 (human) (UniProt P24941+P20248)
CDK2 CCNA2 (human), sequence (P20248 whole entry, looked up, other chains not shown): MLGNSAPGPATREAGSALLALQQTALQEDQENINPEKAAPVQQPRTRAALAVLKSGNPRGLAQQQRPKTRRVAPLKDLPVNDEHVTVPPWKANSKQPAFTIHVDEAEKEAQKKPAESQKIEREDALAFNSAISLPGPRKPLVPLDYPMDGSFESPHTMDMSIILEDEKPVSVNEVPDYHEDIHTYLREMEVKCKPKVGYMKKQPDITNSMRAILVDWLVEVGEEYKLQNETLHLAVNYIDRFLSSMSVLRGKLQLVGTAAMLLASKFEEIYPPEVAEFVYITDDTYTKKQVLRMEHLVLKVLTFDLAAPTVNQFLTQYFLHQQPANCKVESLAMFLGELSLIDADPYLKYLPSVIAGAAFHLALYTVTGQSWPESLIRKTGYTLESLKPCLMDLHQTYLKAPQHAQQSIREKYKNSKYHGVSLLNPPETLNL

IKBKE (human) = IKBKE (human) (UniProt Q14164)
PRKD2 (human) = PRKD2 (human) (UniProt Q9BZL6)
STK17A (human) = STK17A (human) (UniProt Q9UEE5)
STK17A (human), sequence (Q9UEE5 whole entry, looked up): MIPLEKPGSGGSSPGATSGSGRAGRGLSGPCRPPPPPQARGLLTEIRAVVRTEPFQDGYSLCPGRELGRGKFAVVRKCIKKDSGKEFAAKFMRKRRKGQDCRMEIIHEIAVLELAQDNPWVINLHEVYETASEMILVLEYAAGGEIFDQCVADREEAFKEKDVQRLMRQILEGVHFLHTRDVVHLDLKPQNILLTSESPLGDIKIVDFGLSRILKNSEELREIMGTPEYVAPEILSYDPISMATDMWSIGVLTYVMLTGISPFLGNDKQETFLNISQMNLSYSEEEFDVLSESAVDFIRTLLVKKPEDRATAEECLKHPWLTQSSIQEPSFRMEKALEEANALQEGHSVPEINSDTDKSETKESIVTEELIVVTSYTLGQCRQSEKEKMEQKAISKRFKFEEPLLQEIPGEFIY

STK3 (human) = STK3 (human) (UniProt Q13188)
RPS6KA1 KD1 KD2 (human) = RPS6KA1 KD1 KD2 (human) (UniProt Q15418)
MELK (human) = MELK (human) (UniProt Q14680)
[1] = molecular target: TYK2 JH1 catalytic (human) (UniProt P29597)
YES1 (human) = YES1 (human) (UniProt P07947)
MARK1 (human) = MARK1 (human) (UniProt Q9P0L2)
RPS6KB1 (human) = RPS6KB1 (human) (UniProt P23443)
MAP2K1 (human) = MAP2K1 (human) (UniProt Q02750)
NTRK3 (human) = NTRK3 (human) (UniProt Q16288)
MAP3K2 (human) = MAP3K2 (human) (UniProt Q9Y2U5)
PAK7 (human) = PAK7 (human) (UniProt Q9P286)
CDK4 CCND1 (human) = CDK4 CCND1 (human) (UniProt P24385+P11802)
CDK4 CCND1 (human), sequence (P11802 whole entry, looked up): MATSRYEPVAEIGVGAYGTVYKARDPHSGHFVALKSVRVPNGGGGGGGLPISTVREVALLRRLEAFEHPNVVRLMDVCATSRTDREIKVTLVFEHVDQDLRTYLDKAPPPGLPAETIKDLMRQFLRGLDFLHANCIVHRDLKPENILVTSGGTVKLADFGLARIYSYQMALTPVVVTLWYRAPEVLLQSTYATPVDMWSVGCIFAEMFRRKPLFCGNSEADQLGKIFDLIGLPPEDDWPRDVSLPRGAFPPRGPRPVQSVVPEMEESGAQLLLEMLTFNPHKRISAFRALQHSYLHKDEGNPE
CDK4 CCND1 (human), sequence (P24385 whole entry, looked up): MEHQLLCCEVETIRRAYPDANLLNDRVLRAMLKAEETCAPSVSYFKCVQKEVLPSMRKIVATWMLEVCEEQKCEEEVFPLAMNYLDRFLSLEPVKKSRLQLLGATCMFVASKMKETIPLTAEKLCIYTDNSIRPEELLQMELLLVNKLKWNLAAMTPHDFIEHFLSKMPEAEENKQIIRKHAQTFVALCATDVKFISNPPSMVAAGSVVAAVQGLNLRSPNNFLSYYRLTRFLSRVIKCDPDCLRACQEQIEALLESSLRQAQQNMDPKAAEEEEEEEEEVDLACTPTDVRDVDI

PAK2 (human) = PAK2 (human) (UniProt Q13177)
PAK2 (human), sequence (Q13177 whole entry, looked up): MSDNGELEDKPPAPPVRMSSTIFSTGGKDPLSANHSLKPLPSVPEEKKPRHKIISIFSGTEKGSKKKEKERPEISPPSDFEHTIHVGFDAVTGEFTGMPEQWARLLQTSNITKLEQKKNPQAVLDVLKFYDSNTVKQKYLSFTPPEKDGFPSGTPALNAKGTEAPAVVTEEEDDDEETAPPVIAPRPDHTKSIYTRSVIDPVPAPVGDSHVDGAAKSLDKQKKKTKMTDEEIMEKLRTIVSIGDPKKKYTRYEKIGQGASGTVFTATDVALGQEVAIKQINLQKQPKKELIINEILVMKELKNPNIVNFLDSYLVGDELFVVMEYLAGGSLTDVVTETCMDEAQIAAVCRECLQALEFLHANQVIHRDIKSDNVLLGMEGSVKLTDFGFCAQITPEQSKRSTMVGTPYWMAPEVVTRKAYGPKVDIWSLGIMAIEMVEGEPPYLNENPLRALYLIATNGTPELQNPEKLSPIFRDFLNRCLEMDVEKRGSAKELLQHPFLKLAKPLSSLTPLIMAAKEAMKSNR

PRKCE (human) = PRKCE (human) (UniProt Q02156)
SIK2 (human) = SIK2 (human) (UniProt Q9H0K1)
CAMKK1 (human) = CAMKK1 (human) (UniProt Q8N5S9)
CDC42BPA (human) = CDC42BPA (human) (UniProt Q5VT25)
MAPKAPK2 (human) = MAPKAPK2 (human) (UniProt P49137)
ABL2 (human) = ABL2 (human) (UniProt P42684)
AURKA (human) = AURKA (human) (UniProt O14965)
PHKG2 (human) = PHKG2 (human) (UniProt P15735)
DDR2 (human) = DDR2 (human) (UniProt Q16832)
CAMKK2 (human) = CAMKK2 (human) (UniProt Q96RR4)
NEK2 (human) = NEK2 (human) (UniProt P51955)
NEK2 (human), sequence (P51955 whole entry, looked up): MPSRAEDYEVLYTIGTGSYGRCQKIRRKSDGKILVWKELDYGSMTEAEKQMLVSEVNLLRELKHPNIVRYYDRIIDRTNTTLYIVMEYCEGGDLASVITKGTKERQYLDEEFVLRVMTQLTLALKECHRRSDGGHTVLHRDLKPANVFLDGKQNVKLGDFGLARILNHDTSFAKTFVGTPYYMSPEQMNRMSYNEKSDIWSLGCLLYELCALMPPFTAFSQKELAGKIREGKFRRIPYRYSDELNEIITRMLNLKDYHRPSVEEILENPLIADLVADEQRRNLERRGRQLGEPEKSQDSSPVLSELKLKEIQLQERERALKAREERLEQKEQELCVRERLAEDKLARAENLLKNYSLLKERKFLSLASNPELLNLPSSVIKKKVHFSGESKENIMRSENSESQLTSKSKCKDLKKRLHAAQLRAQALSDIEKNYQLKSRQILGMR

PRKCH (human) = PRKCH (human) (UniProt P24723)
CDK4 CCND3 (human) = CDK4 CCND3 (human) (UniProt P30281+P11802)
CDK4 CCND3 (human), sequence (P11802 whole entry, looked up): as the sequence (P11802 whole entry, looked up) above
CDK4 CCND3 (human), sequence (P30281 whole entry, looked up): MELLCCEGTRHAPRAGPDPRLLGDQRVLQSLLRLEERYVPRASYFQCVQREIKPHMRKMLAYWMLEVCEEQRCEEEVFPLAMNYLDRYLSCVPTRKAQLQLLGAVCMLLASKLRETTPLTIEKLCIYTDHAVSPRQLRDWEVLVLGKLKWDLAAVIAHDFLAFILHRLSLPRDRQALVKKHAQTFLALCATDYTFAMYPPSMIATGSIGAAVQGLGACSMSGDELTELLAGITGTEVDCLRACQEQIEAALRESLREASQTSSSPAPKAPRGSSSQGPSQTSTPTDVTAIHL

MARK2 (human) = MARK2 (human) (UniProt Q7KZI7)
MATK (human) = MATK (human) (UniProt P42679)
PAK4 (human) = PAK4 (human) (UniProt O96013)
MAP3K7 TAB1 (human) = MAP3K7 TAB1 (human) (UniProt O43318+Q15750)
BRSK2 (human) = BRSK2 (human) (UniProt Q8IWQ3)
ROCK1 (human) = ROCK1 (human) (UniProt Q13464)
MKNK2 (human) = MKNK2 (human) (UniProt Q9HBH9)
IKBKB (human) = IKBKB (human) (UniProt O14920)

WNK2 (human), sequence (Q9Y3S1 whole entry, looked up): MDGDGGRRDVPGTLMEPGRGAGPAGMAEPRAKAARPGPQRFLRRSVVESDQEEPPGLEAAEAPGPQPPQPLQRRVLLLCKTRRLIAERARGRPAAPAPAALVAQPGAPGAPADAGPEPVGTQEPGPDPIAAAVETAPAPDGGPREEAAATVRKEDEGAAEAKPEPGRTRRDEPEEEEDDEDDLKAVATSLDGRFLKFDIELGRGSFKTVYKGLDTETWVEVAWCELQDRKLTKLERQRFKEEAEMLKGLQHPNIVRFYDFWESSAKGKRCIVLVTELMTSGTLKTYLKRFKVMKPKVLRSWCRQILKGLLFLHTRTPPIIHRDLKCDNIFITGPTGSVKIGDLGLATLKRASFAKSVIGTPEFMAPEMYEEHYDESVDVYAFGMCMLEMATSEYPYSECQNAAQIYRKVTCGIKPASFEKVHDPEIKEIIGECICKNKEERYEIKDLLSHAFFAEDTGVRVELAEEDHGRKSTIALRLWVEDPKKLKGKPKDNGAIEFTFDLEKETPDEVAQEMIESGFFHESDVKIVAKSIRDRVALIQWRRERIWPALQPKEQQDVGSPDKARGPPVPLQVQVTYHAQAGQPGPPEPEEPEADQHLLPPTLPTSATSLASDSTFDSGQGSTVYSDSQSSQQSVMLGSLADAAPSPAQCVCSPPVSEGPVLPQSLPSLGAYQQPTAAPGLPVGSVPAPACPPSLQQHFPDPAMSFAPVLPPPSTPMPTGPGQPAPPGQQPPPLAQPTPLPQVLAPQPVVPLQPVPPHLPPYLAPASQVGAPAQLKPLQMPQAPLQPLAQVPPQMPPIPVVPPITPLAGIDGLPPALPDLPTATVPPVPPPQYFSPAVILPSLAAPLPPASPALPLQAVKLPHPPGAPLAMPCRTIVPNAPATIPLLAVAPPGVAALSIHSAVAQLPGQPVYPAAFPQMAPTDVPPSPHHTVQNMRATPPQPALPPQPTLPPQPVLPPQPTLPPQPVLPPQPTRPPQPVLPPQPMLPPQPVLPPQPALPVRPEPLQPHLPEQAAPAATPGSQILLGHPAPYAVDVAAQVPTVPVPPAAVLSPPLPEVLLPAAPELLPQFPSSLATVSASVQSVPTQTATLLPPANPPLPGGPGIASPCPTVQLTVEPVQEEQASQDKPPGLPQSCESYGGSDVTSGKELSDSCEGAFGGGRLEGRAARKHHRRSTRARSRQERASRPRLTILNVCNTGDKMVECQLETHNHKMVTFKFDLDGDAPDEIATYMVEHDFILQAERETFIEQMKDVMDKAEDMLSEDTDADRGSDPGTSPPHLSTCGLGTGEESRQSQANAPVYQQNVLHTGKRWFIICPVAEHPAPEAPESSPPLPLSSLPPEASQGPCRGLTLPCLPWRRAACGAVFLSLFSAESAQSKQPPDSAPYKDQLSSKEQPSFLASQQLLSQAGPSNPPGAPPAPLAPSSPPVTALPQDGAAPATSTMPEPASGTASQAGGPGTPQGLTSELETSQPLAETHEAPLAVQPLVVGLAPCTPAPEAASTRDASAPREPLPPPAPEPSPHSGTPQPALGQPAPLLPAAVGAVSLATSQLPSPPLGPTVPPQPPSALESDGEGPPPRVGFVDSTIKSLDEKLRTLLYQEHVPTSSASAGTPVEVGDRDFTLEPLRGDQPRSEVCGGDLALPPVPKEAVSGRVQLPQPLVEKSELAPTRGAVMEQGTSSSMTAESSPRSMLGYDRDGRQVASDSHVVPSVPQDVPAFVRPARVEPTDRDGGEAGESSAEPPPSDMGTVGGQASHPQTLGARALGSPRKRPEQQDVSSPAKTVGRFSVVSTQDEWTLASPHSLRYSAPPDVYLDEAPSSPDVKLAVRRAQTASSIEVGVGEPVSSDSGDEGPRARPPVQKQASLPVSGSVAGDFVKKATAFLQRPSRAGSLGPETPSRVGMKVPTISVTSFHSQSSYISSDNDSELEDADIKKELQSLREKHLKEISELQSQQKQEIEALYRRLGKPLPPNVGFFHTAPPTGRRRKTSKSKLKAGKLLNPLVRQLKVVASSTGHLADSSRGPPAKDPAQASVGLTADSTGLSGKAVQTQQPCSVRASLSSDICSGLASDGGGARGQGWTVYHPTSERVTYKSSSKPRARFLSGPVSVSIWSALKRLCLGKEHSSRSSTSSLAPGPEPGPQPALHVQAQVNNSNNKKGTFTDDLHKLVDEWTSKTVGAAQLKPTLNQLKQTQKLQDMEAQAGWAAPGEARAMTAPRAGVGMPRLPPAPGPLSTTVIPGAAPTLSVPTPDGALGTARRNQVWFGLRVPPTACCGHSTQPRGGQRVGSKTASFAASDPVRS

Structure (SMILES): O=C1NC(=O)C(c2c[nH]c3ccccc23)=C1c1c[nH]c2ccccc12
residual activity (VRK1 (human)): 109% | residual activity (WNK2 (human)): 92.7% | residual activity (AKT1 (human)): 87.7% | residual activity (CDK2 CCNA2 (human)): 81.9% | residual activity (IKBKE (human)): 103% | residual activity (PRKD2 (human)): 87.4% | residual activity (STK17A (human)): 92.2% | residual activity (STK3 (human)): 64.7% | residual activity (RPS6KA1 KD1 KD2 (human)): 57.6% | residual activity (MELK (human)): 82% | residual activity [1]: 109% | residual activity (YES1 (human)): 88.4% | residual activity (MARK1 (human)): 90.6% | residual activity (RPS6KB1 (human)): 75.6% | residual activity (MAP2K1 (human)): 95.8% | residual activity (NTRK3 (human)): 72.5% | residual activity (MAP3K2 (human)): 107% | residual activity (PAK7 (human)): 104% | residual activity (CDK4 CCND1 (human)): 97.4% | residual activity (PAK2 (human)): 97% | residual activity (PRKCE (human)): 24% | residual activity (SIK2 (human)): 102% | residual activity (CAMKK1 (human)): 114% | residual activity (CDC42BPA (human)): 89.9% | residual activity (MAPKAPK2 (human)): 95.6% | residual activity (ABL2 (human)): 82.3% | residual activity (AURKA (human)): 108% | residual activity (PHKG2 (human)): 107% | residual activity (DDR2 (human)): 101% | residual activity (CAMKK2 (human)): 92.8% | residual activity (NEK2 (human)): 102% | residual activity (PRKCH (human)): 42% | residual activity (CDK4 CCND3 (human)): 89.8% | residual activity (MARK2 (human)): 88.9% | residual activity (MATK (human)): 91.1% | residual activity (PAK4 (human)): 102% | residual activity (MAP3K7 TAB1 (human)): 97% | residual activity (BRSK2 (human)): 86% | residual activity (ROCK1 (human)): 97.4% | residual activity (MKNK2 (human)): 89.6% | residual activity (IKBKB (human)): 106%

Structure (SMILES): Nc1nnc2[nH]c3ccccc3nc1-2
residual activity (VRK1 (human)): 103% | residual activity (WNK2 (human)): 95.9% | residual activity (AKT1 (human)): 106% | residual activity (CDK2 CCNA2 (human)): 86.2% | residual activity (IKBKE (human)): 99.4% | residual activity (PRKD2 (human)): 94.5% | residual activity (STK17A (human)): 95.2% | residual activity (STK3 (human)): 88.9% | residual activity (RPS6KA1 KD1 KD2 (human)): 97.9% | residual activity (MELK (human)): 92.9% | residual activity [1]: 107% | residual activity (YES1 (human)): 97.1% | residual activity (MARK1 (human)): 95.7% | residual activity (RPS6KB1 (human)): 99.8% | residual activity (MAP2K1 (human)): 98.8% | residual activity (NTRK3 (human)): 92.1% | residual activity (MAP3K2 (human)): 92.6% | residual activity (PAK7 (human)): 98.4% | residual activity (CDK4 CCND1 (human)): 92.4% | residual activity (PAK2 (human)): 104% | residual activity (PRKCE (human)): 86.4% | residual activity (SIK2 (human)): 102% | residual activity (CAMKK1 (human)): 112% | residual activity (CDC42BPA (human)): 95.4% | residual activity (MAPKAPK2 (human)): 105% | residual activity (ABL2 (human)): 95.5% | residual activity (AURKA (human)): 111% | residual activity (PHKG2 (human)): 96.6% | residual activity (DDR2 (human)): 94.6% | residual activity (CAMKK2 (human)): 98.8% | residual activity (NEK2 (human)): 99.6% | residual activity (PRKCH (human)): 87.9% | residual activity (CDK4 CCND3 (human)): 94.8% | residual activity (MARK2 (human)): 110% | residual activity (MATK (human)): 91.9% | residual activity (PAK4 (human)): 104% | residual activity (MAP3K7 TAB1 (human)): 100% | residual activity (BRSK2 (human)): 96.5% | residual activity (ROCK1 (human)): 99% | residual activity (MKNK2 (human)): 89.1% | residual activity (IKBKB (human)): 102%

residual activity (VRK1 (human)): 80.7% | residual activity (WNK2 (human)): 98.6% | residual activity (AKT1 (human)): 99.6% | residual activity (CDK2 CCNA2 (human)): 22.3% | residual activity (IKBKE (human)): 81.4% | residual activity (PRKD2 (human)): 87.8% | residual activity (STK17A (human)): 72.7% | residual activity (STK3 (human)): 39.5% | residual activity (RPS6KA1 KD1 KD2 (human)): 69% | residual activity (MELK (human)): 93.9% | residual activity [1]: 81.6% | residual activity (YES1 (human)): 46.4% | residual activity (MARK1 (human)): 76% | residual activity (RPS6KB1 (human)): 95.4% | residual activity (MAP2K1 (human)): 84.9% | residual activity (NTRK3 (human)): 15.1% | residual activity (MAP3K2 (human)): 93.1% | residual activity (PAK7 (human)): 89.1% | residual activity (CDK4 CCND1 (human)): 73.3% | residual activity (PAK2 (human)): 103% | residual activity (PRKCE (human)): 86.2% | residual activity (SIK2 (human)): 54.6% | residual activity (CAMKK1 (human)): 72.7% | residual activity (CDC42BPA (human)): 85.8% | residual activity (MAPKAPK2 (human)): 109% | residual activity (ABL2 (human)): 26.4% | residual activity (AURKA (human)): 55.4% | residual activity (PHKG2 (human)): 96.6% | residual activity (DDR2 (human)): 89.8% | residual activity (CAMKK2 (human)): 102% | residual activity (NEK2 (human)): 73.9% | residual activity (PRKCH (human)): 95.4% | residual activity (CDK4 CCND3 (human)): 86.2% | residual activity (MARK2 (human)): 74.9% | residual activity (MATK (human)): 93% | residual activity (PAK4 (human)): 92.7% | residual activity (MAP3K7 TAB1 (human)): 97.4% | residual activity (BRSK2 (human)): 43.4% | residual activity (ROCK1 (human)): 94.6% | residual activity (MKNK2 (human)): 66.9% | residual activity (IKBKB (human)): 92.4%
Structure (SMILES): CC(=O)O/N=C1\C(=C2\C(=O)Nc3cc(Br)ccc32)Nc2ccccc21

Structure (SMILES): O=C1NC(=O)/C(=C\c2ccc3nccnc3c2)S1
residual activity (VRK1 (human)): 94.9% | residual activity (WNK2 (human)): 115% | residual activity (AKT1 (human)): 98.3% | residual activity (CDK2 CCNA2 (human)): 99.7% | residual activity (IKBKE (human)): 99.5% | residual activity (PRKD2 (human)): 104% | residual activity (STK17A (human)): 94.6% | residual activity (STK3 (human)): 104% | residual activity (RPS6KA1 KD1 KD2 (human)): 80.7% | residual activity (MELK (human)): 90.7% | residual activity [1]: 85.2% | residual activity (YES1 (human)): 89.3% | residual activity (MARK1 (human)): 96.2% | residual activity (RPS6KB1 (human)): 91.2% | residual activity (MAP2K1 (human)): 89.5% | residual activity (NTRK3 (human)): 95.3% | residual activity (MAP3K2 (human)): 108% | residual activity (PAK7 (human)): 97.4% | residual activity (CDK4 CCND1 (human)): 94.4% | residual activity (PAK2 (human)): 98.4% | residual activity (PRKCE (human)): 101% | residual activity (SIK2 (human)): 102% | residual activity (CAMKK1 (human)): 81.8% | residual activity (CDC42BPA (human)): 93.1% | residual activity (MAPKAPK2 (human)): 97.7% | residual activity (ABL2 (human)): 96.8% | residual activity (AURKA (human)): 97.2% | residual activity (PHKG2 (human)): 97.4% | residual activity (DDR2 (human)): 93.4% | residual activity (CAMKK2 (human)): 72.9% | residual activity (NEK2 (human)): 92.2% | residual activity (PRKCH (human)): 89.7% | residual activity (CDK4 CCND3 (human)): 93.9% | residual activity (MARK2 (human)): 93% | residual activity (MATK (human)): 90.5% | residual activity (PAK4 (human)): 88.5% | residual activity (MAP3K7 TAB1 (human)): 98.7% | residual activity (BRSK2 (human)): 90.9% | residual activity (ROCK1 (human)): 94% | residual activity (MKNK2 (human)): 98.2% | residual activity (IKBKB (human)): 96.1%

Structure (SMILES): COc1cc2ncnc(N3CCN(C(=O)Nc4ccc(Oc5ccccc5)cc4)CC3)c2cc1OC
residual activity (VRK1 (human)): 77.4% | residual activity (WNK2 (human)): 102% | residual activity (AKT1 (human)): 93.7% | residual activity (CDK2 CCNA2 (human)): 93.1% | residual activity (IKBKE (human)): 98.9% | residual activity (PRKD2 (human)): 91.9% | residual activity (STK17A (human)): 85.5% | residual activity (STK3 (human)): 93.3% | residual activity (RPS6KA1 KD1 KD2 (human)): 82% | residual activity (MELK (human)): 94.9% | residual activity [1]: 83.1% | residual activity (YES1 (human)): 106% | residual activity (MARK1 (human)): 99.1% | residual activity (RPS6KB1 (human)): 89.4% | residual activity (MAP2K1 (human)): 91.2% | residual activity (NTRK3 (human)): 89% | residual activity (MAP3K2 (human)): 81.2% | residual activity (PAK7 (human)): 96.8% | residual activity (CDK4 CCND1 (human)): 101% | residual activity (PAK2 (human)): 104% | residual activity (PRKCE (human)): 106% | residual activity (SIK2 (human)): 96% | residual activity (CAMKK1 (human)): 92.9% | residual activity (CDC42BPA (human)): 95.4% | residual activity (MAPKAPK2 (human)): 102% | residual activity (ABL2 (human)): 92.9% | residual activity (AURKA (human)): 79.6% | residual activity (PHKG2 (human)): 128% | residual activity (DDR2 (human)): 95.1% | residual activity (CAMKK2 (human)): 81.6% | residual activity (NEK2 (human)): 81.3% | residual activity (PRKCH (human)): 86.1% | residual activity (CDK4 CCND3 (human)): 90.3% | residual activity (MARK2 (human)): 97.4% | residual activity (MATK (human)): 96.8% | residual activity (PAK4 (human)): 101% | residual activity (MAP3K7 TAB1 (human)): 98.3% | residual activity (BRSK2 (human)): 94.1% | residual activity (ROCK1 (human)): 86% | residual activity (MKNK2 (human)): 94.2% | residual activity (IKBKB (human)): 102%
